Results as given in US20210023209A1, “ANTIGENIC PEPTIDES DERIVING FROM PCSK2 AND USES THEREOF FOR THE DIAGNOSIS AND TREATMENT OF TYPE 1 DIABETES” (INSERM (INSTITUT NATIONAL DE LA SANTÉ ET DE LA RECHERCHE …, priority 2018, published 2021).
Residues, ends and D or L forms follow the SMILES beside them.

Key:
[1] = system: circulating CD8^+ T cells; assay: ex-vivo combinatorial HLA-A2 MMr assay on PBMCs; type: cell-based, human; conditions: for cognate naïve CD8^+ T-cell repertoire (validation of candidate epitope): frequency 1-50/10^6 CD8^+ T cells, clustered MMr staining, ≥50% of individuals; for median frequency in peripheral blood: T1D patients; for frequency of MMr^+ CD8^+ T cells, in words: HLA-A2^+ recent-onset T1D and healthy subjects
[2] = system: pancreas-infiltrating cells of HLA-A2^+ T1D patients; assay: in-situ HLA-A2 MMr staining on pancreas sections; type: cell-based, human; conditions: 2 HLA-A2^+ T1D cases, nPOD tissue sections
Protocol: In-situ staining was performed as described (Culina et al., 2018). Unfixed, frozen sections were dried for 2 h, loaded with 1 μg of MMrs overnight at 4° C., washed gently with phosphate-buffered saline and fixed in 2% paraformaldehyde for 10 min. After a further wash, endogenous peroxidase activity was blocked with 0.3% H2O2. Sections were then incubated serially with rabbit anti-phycoerythrin, horseradish peroxidase-conjugated swine anti-rabbit and 3,3′-diaminobenzidine tetrahydrochloride substrate (ThermoFisher). After a final wash, sections were counterstained with hematoxylin, dehydrated via sequential passages in 95-100% ethanol and xylene, mounted and analyzed using a Nikon Eclipse Ni microscope with NIS-Elements Analysis D software v4.40.

[3] = system: islet-infiltrating CD8+ T cells of NOD mice; assay: IFN-γ recall assay of islet-infiltrating cells against peptide-pulsed K^d+ L cells; type: cell-based; conditions: for positive mice (number/tested) / positive mice, percentage: 12-16-week-old NOD females, positive = IFN-γ^+CD8^+ cells >1.8%; for median percentage of IFN-γ^+CD8^+ cells / positive range of percentage of IFN-γ^+CD8^+ cells: 6 h peptide recall with brefeldin-A, intracellular IFN-γ staining
Description: Peptides predicted to be restricted by the murine MHC Class I K^d molecule were identified using prediction algorithms and scanning of the whole murine protein sequence. Peptides were first tested in pools, and positive pools subsequently deconvoluted for reactivity against individual peptides. To this end, islets were isolated from 12-16-week-old NOD mice by collagenase digestion and put in culture with recombinant human IL-2 (Proleukin, Novartis) for 5 days as described (Brezar et al, Eur J Immunol 2012). Cells exiting the islets were subsequently collected and subjected to recall assays against K^d+ L antigen-presenting cells pulsed with the indicated peptides for 6 h in the presence of brefeldin-A, followed by intracellular staining for IFN-γ. The TUM, Ins B15-23 and IGRP 206-214 peptides were included as negative control and positive controls, respectively.
We performed experiments in 12-16-week-old NOD females by analyzing the reactivity of islet-infiltrating CD8^+ T cells to peptides derived from murine Ucn3 and Pcsk2 and predicted to be restricted by the murine MHC molecule K^d. A positive response was defined as a percentage of IFN-γ^+CD8^+ cells >1.8%, which was the median response observed for the negative control TUM peptide.

HLA-A*02:01 [4] = target: T1, HLA-A*02:01 (human); assay: one of the 18 HLA-eluted peptides with verified HLA-A2 binding; loaded on HLA-A2 multimers
T1 construct: HLA-A2 multimers were produced as in Leisner et al. 2008; also called HLA-A2; A2

HLA-A*02:01 [5] = target: T1, HLA-A*02:01; assay: LC-MS/MS of peptides eluted from W6/32-purified pHLA Class I complexes of beta cells; the HLA-A2 restriction in this row is predicted
Protocol: The HLA class I peptidome of the ECN90 β-cell line was obtained from 5 biological replicates. A single biological replicate was available for primary human islets. […] Beads were subsequently loaded on GELoader Tips (20 μl; ThermoFisher) and washed before elution of pHLA complexes with 10% acetic acid.
Eluted peptides and the associated HLA Class I heavy chain and β2-microglobulin obtained from 20×10⁶ cells were concentrated to 20 μl by vacuum centrifugation, acidified with 10 μl of 1% aqueous formic acid (Normapur) and loaded on C18 stage tips (ThermoFisher) prewashed with 100% methanol and equilibrated with acetonitrile (ACN)/0.1% formic acid in LC-MS grade water (aq. formic acid) 2:98 (v/v). After loading, the C18 stage tips were washed with ACN/0.1% aq. formic acid 2:98 (v/v) and peptides separated from the more hydrophobic HLA Class I heavy chain and β2-microglobulin species by eluting them with ACN/0.1% aq. formic acid 1:1 (v/v). […] For MS analysis, 5 μl of this peptide solution were used.
Peptides were loaded and separated by nanoflow HPLC (RSLC Ultimate 3000, ThermoFisher Scientific) on a reversed phase nanocolumn (C18 Acclaim PepMap 100, 50 cm length, 75 μm i.d. ThermoFisher Scientific) coupled on-line to a nanoESI Q Exactive mass spectrometer (ThermoFisher Scientific).

Molecule	cognate naïve CD8^+ T-cell repertoire (validation of candidate epitope) ([1]; HLA-A2^+ healthy donors)	positive mice (number/tested) [3]	positive mice, percentage [3]	median percentage of IFN-γ^+CD8^+ cells [3]	positive range of percentage of IFN-γ^+CD8^+ cells [3]	other results
KCNK16129-137: HLA-eluted HLA-A2-restricted KCNK16 peptide (ALLGIPLNV)	validated	–	–	–	–	–
IAPP15-17/IAPP5-10: peptide splice product from fusion of IAPP15-17/IAPP5-10 (VALKLQVFL)	–	–	–	–	–	in-situ MMr staining of pancreas sections [2]: MMr^+ cells could be detected; donors with recognition ([1]; HLA-A2^+ healthy donors, screening): 1 of 6; median frequency in peripheral blood [1]: 1.6×10^−6
ZnT8186-184: positive control islet peptide (VAANIVLTV; UniProt Q8IWU4 186-194, looked up, fragment) [reference compound]	–	–	–	–	–	in-situ MMr staining of pancreas sections [2]: MMr^+ cells could be detected
RYLEHVQAVI [Pcsk2 501-510, peptide derived from murine Pcsk2, predicted to be restricted by K^d]	–	5/8	63%	2.7%	2.1-8.0%	–
SCG5186-195: HLA-eluted HLA-A2-restricted SCG5 (7B2) peptide (YLQGQRLDNV)	validated	–	–	–	–	–
UCN31-9: HLA-eluted HLA-A2-restricted urocortin-3 peptide (MLMPVHFLL)	validated	–	–	–	–	frequency of MMr^+ CD8^+ T cells, in words [1]: particularly high and clustered
VFSCLNTAL [Ucn3 32-40, peptide derived from murine Ucn3, predicted to be restricted by K^d]	–	8/12	67%	1.9%	1.9-3.3%	–
LYDESCSSTL [Pcsk2 341-350, peptide derived from murine Pcsk2, predicted to be restricted by K^d]	–	6/8	75%	3.3%	1.9-5.2%	–
IGRP 206-214: positive control peptide in NOD recall assay (VYLKTNVFL; UniProt Q9Z186 206-214, looked up, fragment) [reference compound]	–	13/13	100%	12.5%	4.5-25.3%	–
ISL1276-284: HLA-eluted HLA-A2-restricted peptide of insulin gene enhancer protein ISL1 (GLQANPVEV)	validated	–	–	–	–	in-situ MMr staining of pancreas sections [2]: MMr^+ cells could be detected; median frequency in peripheral blood [1]: 7.2×10^−6
SCG5-009186-194: HLA-eluted peptide from SCG5-009 mRNA splice variant (FLSGAVNRL)	validated	–	–	–	–	frequency of MMr^+ CD8^+ T cells, in words [1]: particularly high and clustered
CHGA344-352: HLA-eluted HLA-A2-restricted chromogranin A peptide (KMDQLAKEL)	validated	–	–	–	–	–
CC(C)C[C@H](NC(=O)[C@H](CCC(=O)O)NC(=O)[C@@H](NC(=O)[C@H](CC(C)C)NC(=O)[C@H](Cc1ccccc1)NC(=O)[C@H](Cc1c[nH]cn1)NC(=O)[C@H](CC(N)=O)NC(=O)[C@@H](NC(=O)[C@@H](N)Cc1ccccc1)[C@@H](C)O)C(C)C)C(=O)O (H-FTNHFLVEL-OH; N-terminus and C-terminus assumed)	validated	–	–	–	–	–
TYFLLPLLL [Ucn3 5-13, peptide derived from murine Ucn3, predicted to be restricted by K^d]	–	8/12	67%	2.3%	2.1-8.6%	–
GYRDINEIDI [Pcsk2 109-118, peptide derived from murine Pcsk2, predicted to be restricted by K^d]	–	6/8	50%	1.8%	1.9-4.3%	–
KIF1A1347-1355: HLA-eluted HLA-A2-restricted Kinesin Family Member 1A peptide (VLDTSVAYV)	validated	–	–	–	–	–
ALLGIPLNV (peptide, UniProt Q96T55 129-137, looked up, range 129-137; Synthetic peptide) [KCNK16 129-137 peptide]	–	–	–	–	–	binding result (HLA-A*02:01 [4]): binds
GLQANPVEV (peptide, UniProt P61371 276-284, looked up, range 276-284; Synthetic peptide) [insulin gene enhancer protein ISL1 276-284 peptide]	–	–	–	–	–	binding result (HLA-A*02:01 [4]): binds
FTNHFLVEL [PCSK2 30-38 peptide (FTNHFLVEL)]	–	–	–	–	–	binding result (HLA-A*02:01 [5]): binds
